Data published in patent publication US20250122155A1, “NOVEL INDOLE DERIVATIVE, PHARMACEUTICAL COMPOSITION COMPRISING SAME, AND USE THEREOF” (MITOIMMUNE THERAPEUTICS INC., priority 2021, published 2025).

System: H9C2 cells
Experiment: Protective effect on heart cells against t-BHP (LDH release)
Format: cell-based
Conditions: H9C2, t-BHP 400 μM, 2 hours, read-out: EC50 (μM), Cell Protection Effect against t-BHP in Heart Cells
Method: In order to identify the protective effect with regard to heart cells, H9C2 cells were divided into 96-well plates by 1.5×10^4, and cultured for 24 hours. The respective wells were treated with compounds of the examples 3× serial diluted to final concentrations of 30, 10, 3, 1, 0.3, 0.1, 0.03 and 0.01 μM, then incubated for 15 to 20 minutes. After treating with t-BHP with a final concentration of 400 μM, incubation was performed for 2 hours. To confirm the protective effect of each compound, a Cytotoxicity LDH assay kit [Dojindo; CK12] was used to measure the degree of extracellular secretion of LDH. After 2-hour treatment of the cells with t-BHP was completed, 100 μL each of the supernatant in which the cells were placed was collected and moved to a new 96-well plate. 100 μL/well of the assay buffer included in the kit (same amount as the sample) was added, followed by wrapping with foil and reacting for 30 minutes at room temperature. Observing the change of color in the sample, 50 μL/well of stop solution was added, then an iD3 spectrometer was used to measure absorbance at 490 nm and calculate the EC50 values. The EC50 of the compounds of the examples is preferably no more than 1.0 μM, and more preferably no more than 0.3 μM.

Structure (SMILES)	EC50
COCCOCc1cc(N(C2CCCC2)C2CCCC2)c2[nH]c(-c3ccccc3)cc2c1 [Example 3, N,N-dicyclopentyl-5-(2-methoxyethoxymethyl)-2-phenyl-1H-indol-7-amine]	≤ 0.3 µM
COCCOCc1cc(N2CCOCC2)c2[nH]c(-c3ccccc3)cc2c1 [Example 5, 4-[5-(2-methoxyethoxymethyl)-2-phenyl-1H-indol-7-yl]morpholine]	> 1 µM
COCCOCc1cc(N(C2CCC2)C2CCC2)c2[nH]c(-c3ccccc3)cc2c1 [Example 9, N,N-dicyclobutyl-5-(2-methoxyethoxymethyl)-2-phenyl-1H-indol-7-amine]	≤ 0.3 µM
COCCOCc1cc(NC2CCC2)c2c(c1)cc(-c1ccccc1)n2C [Example 10, N-cyclobutyl-5-(2-methoxyethoxymethyl)-1-methyl-2-phenyl-indol-7-amine]	0.3 to 1 µM
COCCOCc1cc(NCC(C)(C)C)c2[nH]c(-c3ccccc3)cc2c1 [Example 11, N-(2,2-dimethylpropyl)-5-(2-methoxyethoxymethyl)-2-phenyl-1H-indol-7-amine]	≤ 0.3 µM
COCCOCc1cc(NCC(C)C)c2[nH]c(-c3ccccc3)cc2c1 [Example 15, N-isobutyl-5-(2-methoxyethoxymethyl)-2-phenyl-1H-indol-7-amine]	≤ 0.3 µM
CCCNc1cc(COCCOC)cc2cc(-c3ccccc3)[nH]c12 [Example 16, 5-(2-methoxyethoxymethyl)-2-phenyl-N-propyl-1H-indol-7-amine]	≤ 0.3 µM
CCCCNc1cc(COCCOC)cc2cc(-c3ccccc3)[nH]c12 [Example 17, N-butyl-5-(2-methoxyethoxymethyl)-2-phenyl-1H-indol-7-amine]	≤ 0.3 µM
CCC(CC)CNc1cc(COCCOC)cc2cc(-c3ccccc3)[nH]c12 [Example 18, N-(2-ethylbutyl)-5-(2-methoxyethoxymethyl)-2-phenyl-1H-indol-7-amine]	≤ 0.3 µM
COCCOCc1cc(NCCC(C)C)c2[nH]c(-c3ccccc3)cc2c1 [Example 19, N-isopentyl-5-(2-methoxyethoxymethyl)-2-phenyl-1H-indol-7-amine]	≤ 0.3 µM
CCC(C)Nc1cc(COCCOC)cc2cc(-c3ccccc3)[nH]c12 (stereo not shown) [Example 20, 5-(2(methoxyethoxymethyl)-2-phenyl)-N-sec-butyl-1H-indol-7-amine]	≤ 0.3 µM
CCCC(C)Nc1cc(COCCOC)cc2cc(-c3ccccc3)[nH]c12 (stereo not shown) [Example 22, 5-(2-methoxyethoxymethyl)-N-(1-methylbutyl)-2-phenyl-1H-indol-7-amine]	≤ 0.3 µM
CCC(CC)Nc1cc(COCCOC)cc2cc(-c3ccccc3)[nH]c12 [Example 23, N-(1-ethylpropyl)-5-(2-methoxyethoxymethyl)-2-phenyl-1H-indol-7-amine]	≤ 0.3 µM
COCCOCc1cc(/N=C(/C)C(F)(F)F)c2[nH]c(-c3ccccc3)cc2c1 [Example 24, (E,Z)-1,1,1-trifluoro-N-[5-(2-methoxyethoxymethyl)-2-phenyl-1H-indol-7-yl]propane-2-imine]	≤ 0.3 µM
COCCOCc1cc(NC(C)C(F)(F)F)c2[nH]c(-c3ccccc3)cc2c1 (stereo not shown) [Example 25, 5-(2-methoxyethoxymethyl)-2-phenyl-N-(2,2,2-trifluoro-1-methyl-ethyl)-1H-indol-7-amine]	≤ 0.3 µM
COCCOCc1cc(NC(C)C(C)C)c2[nH]c(-c3ccccc3)cc2c1 (stereo not shown) [Example 26, N-(1,2-dimethylpropyl)-5-(2-methoxyethoxymethyl)-2-phenyl-1H-indol-7-amine]	≤ 0.3 µM
COCCOCc1cc(NC(C)C)c2[nH]c(-c3ccccc3)cc2c1 [Example 27, N-isopropyl-5-(2-methoxyethoxymethyl)-2-phenyl-1H-indol-7-amine]	≤ 0.3 µM
COCCOCc1cc(NCc2ccccc2)c2[nH]c(-c3ccccc3)cc2c1 [Example 28, N-benzyl-5-(2-methoxyethoxymethyl)-2-phenyl-1H-indol-7-amine]	≤ 0.3 µM
COCCOCc1cc(NC2CCN(C(=O)OC(C)(C)C)CC2)c2[nH]c(-c3ccccc3)cc2c1 [Example 29, tert-butyl 4-[[5-(2-methoxyethoxymethyl)-2-phenyl-1H-indol-7-yl]amino]piperidine-1-carboxylate]	≤ 0.3 µM
CCOCCOCc1cc(NC2CCOCC2)c2[nH]c(-c3ccccc3)cc2c1 [Example 35, 5-(2-ethoxyethoxymethyl)-2-phenyl-N-tetrahydropyran-4-yl-1H-indol-7-amine]	≤ 0.3 µM
COCCOCc1cc(NC2CCN(C(=O)Nc3cc(C(F)(F)F)cc(C(F)(F)F)c3)CC2)c2[nH]c(-c3ccccc3)cc2c1 [Example 41, N-[3,5-bis(trifluoromethyl)phenyl]-4-[[5-(2-methoxyethoxymethyl)-2-phenyl-1H-indol-7-yl]amino]piperidine-1-carboxamide]	> 1 µM
COCCOCc1cc(NC2CCN(C(=O)Nc3cc(Cl)cc(Cl)c3)CC2)c2[nH]c(-c3ccccc3)cc2c1 [Example 42, N-(3,5-dichlorophenyl)-4-[[5-(2-methoxyethoxymethyl)-2-phenyl-1H-indol-7-yl]amino]piperidine-1-carboxamide]	0.3 to 1 µM

The next lines start with the values.

EC50	Structure (SMILES)
≤ 0.3 µM	COCCOCc1cc(NC2CCC(O)CC2)c2[nH]c(-c3ccccc3)cc2c1 (single isomer, unassigned) [Example 69-1, 4-((5-((2-methoxyethoxy)methyl)-2-phenyl-1H-indol-7-yl)amino)cyclohexan-1-ol]
≤ 0.3 µM	COCCOCc1cc(NC2CCC(O)CC2)c2[nH]c(-c3ccccc3)cc2c1 (single isomer, unassigned) [Example 69-2, 4-((5-((2-methoxyethoxy)methyl)-2-phenyl-1H-indol-7-yl)amino)cyclohexan-1-ol]
≤ 0.3 µM	COCCOCc1cc(NC2CCC(C)(O)CC2)c2[nH]c(-c3ccccc3)cc2c1 (single isomer, unassigned) [Example 70-1, 4-((5-((2-methoxyethoxy)methyl)-2-phenyl-1H-indol-7-yl)amino)-1-methylcyclohexane-1-ol]
≤ 0.3 µM	COCCOCc1cc(NC2CCC(C)(O)CC2)c2[nH]c(-c3ccccc3)cc2c1 (single isomer, unassigned) [Example 70-2, 4-((5-((2-methoxyethoxy)methyl)-2-phenyl-1H-indol-7-yl)amino)-1-methylcyclohexane-1-ol]
≤ 0.3 µM	COCCOCc1cc(NC2CCOC2)c2[nH]c(-c3ccccc3)cc2c1 (stereo not shown) [Example 6, 5-(2-methoxyethoxymethyl)-2-phenyl-N-tetrahydrofuran-3-yl-1H-indol-7-amine]
≤ 0.3 µM	COCCOCc1cc(NC2COC2)c2[nH]c(-c3ccccc3)cc2c1 [Example 7, 5(2-methoxyethoxymethyl)-N-(oxetane-3-yl)-2-phenyl-1H-indol-7-amine]
≤ 0.3 µM	COCCOCc1cc(NC2CCC2)c2[nH]c(-c3ccccc3)cc2c1 [Example 8, N-cyclobutyl-5-(2-methoxyethoxymethyl)-2-phenyl-1H-indol-7-amine]
≤ 0.3 µM	COCCOCc1cc(NCC2CCCC2)c2[nH]c(-c3ccccc3)cc2c1 [Example 12, N-(cyclopentylmethyl)-5-(2-methoxyethoxymethyl)-2-phenyl-1H-indol-7-amine]
≤ 0.3 µM	COCCOCc1cc(NC2CCCCC2)c2[nH]c(-c3ccccc3)cc2c1 [Example 13, N-cyclohexyl-5-(2-methoxyethoxymethyl)-2-phenyl-1H-indol-7-amine]
≤ 0.3 µM	COCCOCc1cc(NC2CCC(F)(F)CC2)c2[nH]c(-c3ccccc3)cc2c1 [Example 14, N-(4,4-difluorocyclohexyl)-5-(2-methoxyethoxymethyl)2-phenyl-1H-indol-7-amine]
≤ 0.3 µM	COCCOCc1cc(NCC2CC2)c2[nH]c(-c3ccccc3)cc2c1 [Example 21]
≤ 0.3 µM	COCCOCc1cc(NC2CCN(S(C)(=O)=O)CC2)c2[nH]c(-c3ccccc3)cc2c1 [Example 31, 5-(2-methoxyethoxymethyl)-N-(1-methylsulfonyl-4-piperidyl)-2-phenyl-1H-indol-7-amine]
≤ 0.3 µM	COCCOCc1cc(NC2CCS(=O)(=O)CC2)c2[nH]c(-c3ccccc3)cc2c1 [Example 32, N-(1,1-dioxothian-4-yl)-5-(2-methoxyethoxymethyl)-2-phenyl-1H-indol-7-amine]
≤ 0.3 µM	COCCOCc1cc(NC2CC[S+]([O-])CC2)c2[nH]c(-c3ccccc3)cc2c1 (stereo not shown) [Example 33, 5-(2-methoxyethoxymethyl)-N-(1-oxothian-4-yl)-2-phenyl-1H-indol-7-amine]
≤ 0.3 µM	COCCOCc1cc(NC2CCN(C)CC2)c2[nH]c(-c3ccccc3)cc2c1 [Example 34, 5-(2-methoxyethoxymethyl)-N-(1-methyl-4-piperidyl)-2-phenyl-1H-indol-7-amine]
≤ 0.3 µM	CC(C)OCCOCc1cc(NC2CCCC2)c2[nH]c(-c3ccccc3)cc2c1 [Example 37, N-cyclopentyl-5-(2-isopropoxyethoxymethyl)-2-phenyl-1H-indol-7-amine]
≤ 0.3 µM	CC(C)OCCOCc1cc(NC2CCOCC2)c2[nH]c(-c3ccccc3)cc2c1 [Example 38, 5-(2-isopropoxyethoxymethyl)-2-phenyl-Ntetrahydropyran-4-yl-1H-indol-7-amine]
0.3 to 1 µM	COCCOCCOCc1cc(NC2CCOCC2)c2[nH]c(-c3ccccc3)cc2c1 [Example 40, 5-[2-(2-methoxyethoxy)ethoxymethyl]-2-phenyl-N-tetrahydropyran-4-yl-1H-indol-7-amine]
